Measurements taken from patent publication EP3033337B1, “SUBSTITUTED IMIDAZOLES AS N-TYPE CALCIUM CHANNEL BLOCKERS” (Janssen Pharmaceutica NV, priority 2013, dated 2015).
Where two headings read alike, the source gives them in different places.

How the values were obtained:
[1] = target: T1, human N-type Ca channel (Homo sapiens, UniProt Q00975); test: Calcium influx assay (FDSS), KCl depolarization, Fluo8 dye; format: cell-based; design: host or cells: HEK 293; settings: HEK 293 cells expressing human N-type Ca channel; 100 mM KCl; read-out: N Type IC50 Data FDSS
T1 sequence (Q00975 whole entry): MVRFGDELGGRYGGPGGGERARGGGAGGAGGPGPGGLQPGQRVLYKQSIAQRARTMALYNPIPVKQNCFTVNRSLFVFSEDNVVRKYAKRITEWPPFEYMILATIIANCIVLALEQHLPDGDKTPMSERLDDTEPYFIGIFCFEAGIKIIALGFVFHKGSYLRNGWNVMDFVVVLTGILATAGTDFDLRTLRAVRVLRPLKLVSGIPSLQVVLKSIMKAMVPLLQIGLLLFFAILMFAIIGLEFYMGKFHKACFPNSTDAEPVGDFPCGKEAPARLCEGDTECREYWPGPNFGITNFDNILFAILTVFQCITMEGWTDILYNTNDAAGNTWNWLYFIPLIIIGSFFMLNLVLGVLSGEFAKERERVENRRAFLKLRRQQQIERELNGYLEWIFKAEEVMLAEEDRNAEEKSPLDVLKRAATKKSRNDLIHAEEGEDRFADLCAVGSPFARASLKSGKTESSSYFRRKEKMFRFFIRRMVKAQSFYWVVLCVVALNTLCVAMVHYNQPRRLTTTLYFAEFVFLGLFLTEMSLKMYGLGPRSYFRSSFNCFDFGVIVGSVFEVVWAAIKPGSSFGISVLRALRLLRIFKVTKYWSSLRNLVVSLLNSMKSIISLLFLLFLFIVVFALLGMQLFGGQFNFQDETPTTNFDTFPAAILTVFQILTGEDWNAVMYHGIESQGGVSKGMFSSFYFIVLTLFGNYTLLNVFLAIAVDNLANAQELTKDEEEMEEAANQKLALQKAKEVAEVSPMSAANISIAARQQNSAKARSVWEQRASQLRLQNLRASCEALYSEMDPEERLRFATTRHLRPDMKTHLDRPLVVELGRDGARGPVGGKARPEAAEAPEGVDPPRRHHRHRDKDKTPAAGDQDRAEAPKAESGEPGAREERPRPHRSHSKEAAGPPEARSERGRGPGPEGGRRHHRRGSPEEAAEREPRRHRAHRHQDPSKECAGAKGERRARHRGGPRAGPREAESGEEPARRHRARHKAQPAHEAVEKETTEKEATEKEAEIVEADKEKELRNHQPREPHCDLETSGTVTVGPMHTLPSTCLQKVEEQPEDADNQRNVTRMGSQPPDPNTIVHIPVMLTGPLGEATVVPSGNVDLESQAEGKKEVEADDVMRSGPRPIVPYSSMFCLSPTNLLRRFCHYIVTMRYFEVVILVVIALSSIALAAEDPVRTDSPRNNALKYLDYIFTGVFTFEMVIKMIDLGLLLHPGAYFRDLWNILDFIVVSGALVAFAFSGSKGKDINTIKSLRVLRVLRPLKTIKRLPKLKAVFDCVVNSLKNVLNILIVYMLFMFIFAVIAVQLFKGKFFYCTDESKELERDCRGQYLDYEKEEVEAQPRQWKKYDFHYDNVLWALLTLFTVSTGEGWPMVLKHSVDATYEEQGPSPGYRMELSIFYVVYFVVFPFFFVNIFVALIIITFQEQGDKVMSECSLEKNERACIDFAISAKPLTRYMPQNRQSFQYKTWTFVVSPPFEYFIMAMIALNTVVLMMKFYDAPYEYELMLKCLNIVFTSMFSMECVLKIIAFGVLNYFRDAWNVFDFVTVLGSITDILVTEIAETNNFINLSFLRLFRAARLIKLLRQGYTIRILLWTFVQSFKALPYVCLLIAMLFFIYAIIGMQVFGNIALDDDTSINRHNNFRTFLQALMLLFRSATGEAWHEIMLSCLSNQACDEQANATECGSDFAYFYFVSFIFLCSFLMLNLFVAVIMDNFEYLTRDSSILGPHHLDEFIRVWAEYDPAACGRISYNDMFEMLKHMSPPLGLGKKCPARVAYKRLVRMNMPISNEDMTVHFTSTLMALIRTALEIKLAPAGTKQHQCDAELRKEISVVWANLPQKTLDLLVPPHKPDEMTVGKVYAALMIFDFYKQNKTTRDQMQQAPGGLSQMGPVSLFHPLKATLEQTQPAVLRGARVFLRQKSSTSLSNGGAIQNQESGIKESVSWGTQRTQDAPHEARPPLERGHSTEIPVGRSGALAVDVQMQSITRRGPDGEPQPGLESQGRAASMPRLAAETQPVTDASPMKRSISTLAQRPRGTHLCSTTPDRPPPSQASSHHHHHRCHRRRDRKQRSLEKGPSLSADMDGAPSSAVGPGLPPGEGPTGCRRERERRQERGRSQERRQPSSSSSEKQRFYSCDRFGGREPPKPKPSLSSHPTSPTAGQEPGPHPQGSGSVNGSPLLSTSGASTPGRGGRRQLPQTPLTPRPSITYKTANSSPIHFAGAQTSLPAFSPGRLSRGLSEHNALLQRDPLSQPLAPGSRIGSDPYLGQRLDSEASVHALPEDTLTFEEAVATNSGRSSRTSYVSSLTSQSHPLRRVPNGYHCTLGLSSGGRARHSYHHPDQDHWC
T1 sequence (P54284 whole entry partner): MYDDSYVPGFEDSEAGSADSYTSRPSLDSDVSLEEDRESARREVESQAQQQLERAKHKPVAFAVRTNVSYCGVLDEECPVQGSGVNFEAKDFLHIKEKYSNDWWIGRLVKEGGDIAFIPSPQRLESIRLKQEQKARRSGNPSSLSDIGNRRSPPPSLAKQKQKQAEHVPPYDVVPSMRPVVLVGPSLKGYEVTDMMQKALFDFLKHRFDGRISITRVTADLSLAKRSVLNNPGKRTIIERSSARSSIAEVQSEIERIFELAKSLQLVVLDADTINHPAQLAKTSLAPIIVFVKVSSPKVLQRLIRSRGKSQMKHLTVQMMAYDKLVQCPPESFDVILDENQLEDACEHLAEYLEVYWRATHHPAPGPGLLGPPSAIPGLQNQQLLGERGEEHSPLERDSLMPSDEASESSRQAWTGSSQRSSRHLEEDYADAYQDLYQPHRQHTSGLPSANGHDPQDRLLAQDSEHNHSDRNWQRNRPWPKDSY
T1 sequence (P54289 25-956 partner limits assumed): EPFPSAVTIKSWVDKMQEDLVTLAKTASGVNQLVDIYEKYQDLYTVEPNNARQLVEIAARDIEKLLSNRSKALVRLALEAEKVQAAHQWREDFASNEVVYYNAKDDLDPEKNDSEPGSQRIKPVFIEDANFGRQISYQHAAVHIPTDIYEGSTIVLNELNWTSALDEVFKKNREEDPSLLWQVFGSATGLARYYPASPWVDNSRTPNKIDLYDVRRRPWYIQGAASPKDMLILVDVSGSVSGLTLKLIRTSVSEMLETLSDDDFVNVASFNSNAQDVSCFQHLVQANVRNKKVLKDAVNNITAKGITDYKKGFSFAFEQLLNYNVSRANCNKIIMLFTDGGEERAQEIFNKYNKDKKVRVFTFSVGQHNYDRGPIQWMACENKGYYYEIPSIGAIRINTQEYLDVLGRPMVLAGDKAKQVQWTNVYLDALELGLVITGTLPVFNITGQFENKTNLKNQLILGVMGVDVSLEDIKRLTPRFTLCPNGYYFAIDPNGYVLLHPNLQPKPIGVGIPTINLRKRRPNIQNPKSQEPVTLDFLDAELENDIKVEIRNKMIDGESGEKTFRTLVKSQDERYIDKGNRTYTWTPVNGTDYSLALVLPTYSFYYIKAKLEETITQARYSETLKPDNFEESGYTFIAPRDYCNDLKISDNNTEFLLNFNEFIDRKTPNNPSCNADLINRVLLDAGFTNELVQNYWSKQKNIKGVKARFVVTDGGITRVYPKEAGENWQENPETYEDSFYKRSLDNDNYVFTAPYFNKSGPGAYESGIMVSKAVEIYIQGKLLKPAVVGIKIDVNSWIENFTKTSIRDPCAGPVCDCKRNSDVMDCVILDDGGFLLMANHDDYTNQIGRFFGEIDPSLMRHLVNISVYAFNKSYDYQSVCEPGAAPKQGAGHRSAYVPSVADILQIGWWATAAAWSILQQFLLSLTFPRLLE
T1 sequence (P54289 957-1103 partner limits assumed): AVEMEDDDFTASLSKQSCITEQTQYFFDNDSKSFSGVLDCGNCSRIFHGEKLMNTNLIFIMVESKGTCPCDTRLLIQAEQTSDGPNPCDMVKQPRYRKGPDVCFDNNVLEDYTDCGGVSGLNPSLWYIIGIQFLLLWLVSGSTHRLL
Experimental: All cell culture reagents were procured from HyClone and other reagents were from Fisher. Recombinant HEK 293 cells expressing human N-type Ca channel (Millipore) were maintained in DMEM F12 containing 10% FBS and selection antibiotics at 37 °C in 5% CO2.
Cells were incubated at 30 °C in 5% CO2 overnight. The medium was removed and cells were loaded with Fluo8 dye (AAT Bioquest) at 37 °C and 30 °C, 30 min each in darkness. Cells were washed four times with wash buffer (16 mM Herep pH 7.2, 2 mM CaCl2, 1 mM MgCl2, 5 mM glucose, 140 mM choline chloride and 2 mM KCl) leaving 15 µL buffer after the last wash. Compounds of Formula (I), serially diluted, were added to the cell plate. The plates were incubated in darkness for 15 min. Cells were depolarized with 100 mM KCl and Ca influx was measured.

[2] = target: T1, human N-type Ca channel; test: Electrophysiological response, QPatch (depolarization -80 mV to +20 mV)
[3] = N Type IC50 Data Qpatch Pulse=1, Pulse=1, concentration range 0.01-1 µM
[4] = N Type IC50 Data Qpatch Pulse=15, Pulse=15, concentration range 0.01-1 µM
[5] = read-out: Qpatch Pulse=1 (percent inhibition)
[6] = read-out: N Type IC50 Data Qpatch Pulse=15, Pulse=15, concentration range 0.01-1 µM
[7] = concentration range 0.01-0.3 µM
[8] = Pulse=15, concentration range 0.01-0.3 µM
[9] = read-out: Qpatch Pulse=15 (percent inhibition)

Row | Structure (SMILES) | IC50 [1] [nM] | IC50 [2, 3] [nM] | IC50 [2, 6] [nM] | other results
1 | COc1ccccc1-c1nc(C2CC(C)(C)OC(C)(C)C2)cn1-c1cnc(C)nc1 [Compound 8, 5-(2-(2-methoxyphenyl)-4-(2,2,6,6-tetramethyltetrahydro-2H-pyran-4-yl)-1H-imidazol-1-yl)-2-mithylpyrimidine] | > 10000 | 508 |  | IC50 [2, 4]: > 1000 nM
2 | COc1ccccc1-c1nc(C2CC(C)(C)OC(C)(C)C2)cn1-c1ccc(Cl)c(C#N)c1 [Compound 14, 2-chloro-5-(2-(2-methoxyphenyl)-4-(2,2,6,6-tetramethyltetrahydro-2H-pyran-4-yl)-1H-imidazol-1-yl)benzonitrile] | 2700 | 266 |  | IC50 [2, 4]: > 1000 nM
3 | COc1ncccc1-c1nc(C2CC(C)(C)OC(C)(C)C2)cn1-c1ccc(C#N)c(C)c1 [Compound 15, 4-(2-(2-methoxypyridin-3-yl)-4-(2,2,6,6-tetramethyltetrahydro-2H-pyran-4-yl)-1H-imidazol-1-yl)-2-methylbenzonitrile] | 256 |  |  | N Type IC50 Data Qpatch Pulse=1 [2, 7]: poor fit(0.01-0.3 µM); N Type IC50 Data Qpatch Pulse=15 [2, 8]: poor fit(0.01-0.3 µM)
4 | COc1ncccc1-c1nc(C2CC(C)(C)OC(C)(C)C2)cn1-c1ccc(F)c(F)c1F [Compound 16, 2-methoxy-3-(4-(2,2,6,6-tetramethyltetrahydro-2H-pyran-4-yl)-1-(2,3,4-trifluorophenyl)-1H-imidazol-2-yl)pyridine] | 359 |  |  | N Type IC50 Data Qpatch Pulse=1 [2, 7]: poor fit(0.01-0.3 µM); N Type IC50 Data Qpatch Pulse=15 [2, 8]: poor fit(0.01-0.3µM)
5 | COc1ccccc1-c1nc(C2CC(C)(C)OC(C)(C)C2)cn1-c1ccc(C#N)c(C)c1 [Compound 21, 4-(2-(2-methoxyphenyl)-4-(2,2,6,6-tetramethyltetrahydro-2H-pyran-4-yl)-1H-imidazol-1-yl)-2-methylbenzonitrile] | 119 | 639 |  | 
6 | COc1ccccc1-c1nc(C2CC(C)(C)OC(C)(C)C2)cn1-c1ccc(C)c(C#N)c1 [Compound 22, 5-(2-(2-methoxyphenyl)-4-(2,2,6,6-tetramethyltetrahydro-2H-pyran-4-yl)-1H-imidazol-1-yl)-2-methylbenzonitrile] | 75 | 590 |  | IC50 [2, 4]: 847 nM
7 | COc1ccc(-n2cc(C3CC(C)(C)OC(C)(C)C3)nc2-c2cccnc2OC)cc1F [Compound 23, 3-(1-(3-fluoro-4-methoxyphenyl)-4-(2,2,6,6-tetramethyltetrahydro-2H-pyran-4-yl)-1H-imidazol-2-yl)-2-methoxypyridine] | 310 |  | > 1000 | 
8 | COc1ncccc1-c1nc(C2CC(C)(C)OC(C)(C)C2)cn1-c1ccc(C)c(C#N)c1 [Compound 25, 5-(2-(2-methoxypyridin-3-yl)-4-(2,2,6,6-tetramethyltetrahydro-2H-pyran-4-yl)-1H-imidazol-1-yl)-2-methylbenzonitrile] | 818 | > 1000 | > 1000 | 
9 | COc1ncccc1-c1nc(C2CC(C)(C)OC(C)(C)C2)cn1Cc1ccccc1Cl [Compound 27, 3-(1-(2-chlorobenzyl)-4-(2,2,6,6-tetramethyltetrahydro-2H-pyran-4-yl)-1H-imidazol-2-yl)-2-methoxypyridine] | 6400 |  |  | IC50 ([2]; N Type IC50 Data Qpatch Pulse=15, Pulse=15, concentration range 0.01-0.3 µM): 1900 nM; N Type IC50 Data Qpatch Pulse=1 [2, 7]: poor fit(0.01-0.3 µM)
10 | COc1ncccc1-c1nc(C2CC(C)(C)OC(C)(C)C2)cn1-c1ccc(C#N)c(C(F)(F)F)c1 [Compound 29, 4-(2-(2-methoxypyridin-3-yl)-4-(2,2,6,6-tetramethyltetrahydro-2H-pyran-4-yl)-1H-imidazol-1-yl)-2-(trifluoromethyl) benzonitrile] | 492 |  |  | N Type IC50 Data Qpatch Pulse=1 [2, 7]: poor fit(0.01-0.3 µM); N Type IC50 Data Qpatch Pulse=15 [2, 8]: poor fit(0.01-0.3 µM)
11 | COc1ncccc1-c1nc(C2CC(C)(C)OC(C)(C)C2)cn1-c1ccc(F)cc1F [Compound 30, 3-(1-(2,4-difluorophenyl)-4-(2,2,6,6-tetramethyltetrahydro-2H-pyran-4-yl)-1H-imidazol-2-yl)-2-methoxypyridine] | 321 |  |  | inhibition at 10 µM [2, 5]: 67%; inhibition at 10 µM [2, 9]: 35%
12 | COc1ncccc1-c1nc(C2CC(C)(C)OC(C)(C)C2)cn1-c1cccc(F)c1F [Compound 31, 3-(1-(2,3-difluorophenyl)-4-(2,2,6,6-tetramethyltetrahydro-2H-pyran-4-yl)-1H-imidazol-2-yl)-2-methoxypyridine] | 769 |  |  | IC50 ([2]; N Type IC50 Data Qpatch Pulse=1, Pulse=1, concentration range 0.01-0.3 µM): 1580 nM; N Type IC50 Data Qpatch Pulse=15 [2, 8]: poor fit(0.01-0.3 ,u.M)
13 | COc1ccccc1-c1nc(C2CC(C)(C)OC(C)(C)C2)cn1-c1cccc(C#N)c1 [Compound 32, 3-(2-(2-methoxyphenyl)-4-(2,2,6,6-tetramethyltetrahydro-2H-pyran-4-yl)-1H-imidazol-1-yl)benzonitrile] | 278 | > 1000 | > 1000 | 
14 | COc1cc(-n2cc(C3CC(C)(C)OC(C)(C)C3)nc2-c2ccccc2OC)ccc1C#N [Compound 34, 2-methoxy-4-(2-(2-methoxyphenyl)-4-(2,2,6,6-tetramethyltetrahydro-2H-pyran-4-yl)-1H-imidazol-1-yl)benzonitrile] | 1620 |  | > 1000 | 
15 | COc1ccccc1-c1nc(C2CC(C)(C)OC(C)(C)C2)cn1-c1ccc(C#N)cc1F [Compound 36, 3-fluoro-4-(2-(2-methoxyphenyl)-4-(2,2,6,6-tetramethyltetrahydro-2H-pyran-4-yl)-1H-imidazol-1-yl)benzonitrile] | 40 | 376 | > 1000 | 

Further lines, with some results ahead:

Row | IC50 [1] [nM] | IC50 [2, 3] [nM] | IC50 [2, 6] [nM] | Structure (SMILES) | other results
16 | 630 |  |  | COc1cccnc1-c1nc(C2CC(C)(C)OC(C)(C)C2)cn1-c1ccc(C#N)cc1 [Compound 12, 4-(2-(3-methoxypyridin-2-yl)-4-(2,2,6,6-tetramethyltetrahydro-2H-pyran-4-yl)-1H-imidazol-1-yl)benzonitrile] | inhibition at 10 µM [2, 5]: 28%
17 | 200 | > 1000 | > 1000 | COc1cnccc1-c1nc(C2CC(C)(C)OC(C)(C)C2)cn1-c1ccc(Cl)c(F)c1 [Compound 13, 4-(1-(4-chloro-3-fluorophenyl)-4-(2,2,6,6-tetramethyltetrahydro-2H-pyran-4-yl)-1H-imidazol-2-yl)-3-methoxypyridine] | 
18 | 591 |  |  | COc1cccnc1-c1nc(C2CC(C)(C)OC(C)(C)C2)cn1-c1ccc(F)c(Cl)c1 [Compound 17, 2-(1-(3-chloro-4-fluorophenyl)-4-(2,2,6,6-tetramethyltetrahydro-2H-pyran-4-yl)-1H-imidazol-2-yl)-3-methoxypyridine] | IC50 ([2]; N Type IC50 Data Qpatch Pulse=1, Pulse=1, concentration range 0.3-10 µM): 4400 nM; IC50 ([2]; N Type IC50 Data Qpatch Pulse=15, Pulse=15, concentration range 0.3-10 µM): 5200 nM
19 | 108 | 694 |  | COc1cnccc1-c1nc(C2CC(C)(C)OC(C)(C)C2)cn1-c1ccc(F)c(Cl)c1 [Compound 18, 4-(1-(3-chloro-4-fluorophenyl)-4-(2,2,6,6-tetramethyltetrahydro-2H-pyran-4-yl)-1H-imidazol-2-yl)-3-methoxypyridine] | IC50 [2, 4]: 376 nM
20 | 263 | 966 |  | COc1cccnc1-c1nc(C2CC(C)(C)OC(C)(C)C2)cn1-c1ccc(Cl)c(F)c1 [Compound 19, 2-(1-(4-chloro-3-fluorophenyl)-4-(2,2,6,6-tetramethyltetrahydro-2H-pyran-4-yl)-1H-imidazol-2-yl)-3-methoxypyridine] | inhibition at 1 µM [2, 9]: 28%
21 | 1060 | > 1000 | > 1000 | COc1ccncc1-c1nc(C2CC(C)(C)OC(C)(C)C2)cn1-c1ccc(F)c(Cl)c1 [Compound 20, 3-(1-(3-chloro-4-fluorophenyl)-4-(2,2,6,6-tetramethyltetrahydro-2H-pyran-4-yl)-1H-imidazol-2-yl)-4-methoxypyridine] | 
22 | 7150 |  | > 1000 | COc1cc(-n2cc(C3CC(C)(C)OC(C)(C)C3)nc2-c2cccnc2OC)ccc1F [Compound 24, 3-(1-(4-fluoro-3-methoxyphenyl)-4-(2,2,6,6-tetramethyltetrahydro-2H-pyran-4-yl)-1H-imidazol-2-yl)-2-methoxypyridine] | 
23 | 5760 | > 1000 |  | Cn1cnnc1-c1nc(C2CC(C)(C)OC(C)(C)C2)cn1-c1ccc(Cl)cc1 [Compound 26, 3-(1-(4-chlorophenyl)-4-(2,2,6,6-tetramethyltetrahydro-2H-pyran-4-yl)-1H-imidazol-2-yl)-4-methyl-4H-1,2,4-triazole] | IC50 [2, 4]: > 1000 nM
24 | 1640 |  |  | COc1ncccc1-c1nc(C2CC(C)(C)OC(C)(C)C2)cn1Cc1ccc(Cl)cc1 [Compound 28, 3-(1-(4-chlorobenzyl)-4-(2,2,6,6-tetramethyltetrahydro-2H-pyran-4-yl)-1H-imidazol-2-yl)-2-methoxypyridine] | N Type IC50 Data Qpatch Pulse=1 [2, 7]: poor fit(0.01-0.3 µM); N Type IC50 Data Qpatch Pulse=15 [2, 8]: poor fit(0.01-0.3 µM)
25 | 459 | > 1000 | > 1000 | COc1cnccc1-c1nc(C2CC(C)(C)OC(C)(C)C2)cn1-c1ccc(F)c(F)c1 [Compound 33, 4-(1-(3,4-difluorophenyl)-4-(2,2,6,6-tetramethyltetrahydro-2H-pyran-4-yl)-1H-imidazol-2-yl)-3-methoxypyridine] | 
